Organism: Rattus norvegicus
Test: Open TG-GATES - Regimen: Daily Repeat
Assay type: toxicity, organism-based, Sprague-Dawley
Set-up: regimen Daily Repeat, gender Male, age 6 weeks
Settings: in vivo, po, route gavage; for gamma-GTP / ALP / ALT / AST / BUN / CRE / DBIL / GLC / IP / K / LDH / Na / PL / RALB / TBIL / TC / TG / TP: tissue Plasma; for APTT / Bas / Eos / Fbg / Hb / Ht / Lym / MCH / MCHC / MCV / Mono / Neu / Plat / RBC / Ret / WBC: tissue Blood; for KIDNEY_L / KIDNEY_R / KIDNEY_TOTAL: tissue Kidney
[1] = 10 mg/kg, 72 h, dose level Low, time 3 day
[2] = 10 mg/kg, […], dose level Low, time 7 day
[3] = 10 mg/kg, […], dose level Low, time 14 day
[4] = 10 mg/kg, […], dose level Low, time 28 day

CN(C)CCC=C1c2ccccc2COc2ccccc21 [DOXEPIN]
gamma-GTP (0 mg/kg, […], dose level Control, time 28 day): 1 IU/L | TERMINAL_BW [1]: 218 g | APTT [1]: 16.2 s | Bas [1]: 0% | Eos [1]: 1% | Fbg [1]: 283.2 mg/dL | Hb [1]: 13.4 g/dL | Ht [1]: 39.3% | Lym [1]: 78% | MCH [1]: 21.5 pg | MCHC [1]: 34.2% | MCV [1]: 62.8 fL | Mono [1]: 2.8% | Neu [1]: 18% | Plat [1]: 107 x10_4/uL | RBC [1]: 625.6 x10_4/ul | Ret [1]: 7.4% | WBC [1]: 67.2 x10_2/uL | KIDNEY_L [1]: 0.9 g | KIDNEY_R [1]: 0.9 g | KIDNEY_TOTAL [1]: 1.9 g | ALP [1]: 1531.8 IU/L | ALT [1]: 42.2 IU/L | AST [1]: 70.8 IU/L | BUN [1]: 15.4 mg/dL | CRE [1]: 0.2 mg/dL | DBIL [1]: 0.024 mg/dL | GLC [1]: 191 mg/dL | IP [1]: 7.7 mg/dL | K [1]: 4.3 meq/L | LDH [1]: 74.2 IU/L | Na [1]: 141.6 meq/L | PL [1]: 156.8 mg/dL | RALB [1]: 2.7 g/dL | TBIL [1]: 0.044 mg/dL | TC [1]: 85.8 mg/dL | TG [1]: 100.8 mg/dL | TP [1]: 5.8 g/dL | gamma-GTP [1]: 1.4 IU/L | TERMINAL_BW [2]: 254.8 g | TERMINAL_BW [3]: 315.1 g | TERMINAL_BW [4]: 390 g | APTT [2]: 16.3 s | Bas [2]: 0% | Eos [2]: 1% | Fbg [2]: 283.4 mg/dL | Hb [2]: 13.5 g/dL | Ht [2]: 38.8% | Lym [2]: 79.8% | MCH [2]: 21.5 pg | MCHC [2]: 34.8% | MCV [2]: 61.8 fL | Mono [2]: 3% | Neu [2]: 15.6% | Plat [2]: 115.8 x10_4/uL | RBC [2]: 627.6 x10_4/ul | Ret [2]: 6% | WBC [2]: 88.3 x10_2/uL | APTT [3]: 16.8 s | Bas [3]: 0% | Eos [3]: 1.2% | Fbg [3]: 296.8 mg/dL | Hb [3]: 14.1 g/dL | Ht [3]: 40.5% | Lym [3]: 75.4% | MCH [3]: 21.5 pg | MCHC [3]: 34.7% | MCV [3]: 61.8 fL | Mono [3]: 3% | Neu [3]: 20% | Plat [3]: 106.2 x10_4/uL | RBC [3]: 656.4 x10_4/ul | Ret [3]: 4.7% | WBC [3]: 76.1 x10_2/uL | APTT [4]: 16.2 s | Bas [4]: 0% | Eos [4]: 1.4% | Fbg [4]: 283.8 mg/dL | Hb [4]: 14.6 g/dL | Ht [4]: 41.3% | Lym [4]: 81.4% | MCH [4]: 19.8 pg | MCHC [4]: 35.4% | MCV [4]: 56 fL | Mono [4]: 2% | Neu [4]: 14.6% | Plat [4]: 109.1 x10_4/uL | RBC [4]: 737.6 x10_4/ul | Ret [4]: 2.4% | WBC [4]: 71.4 x10_2/uL | KIDNEY_L [2]: 1.1 g | KIDNEY_R [2]: 1.1 g | KIDNEY_TOTAL [2]: 2.2 g | KIDNEY_L [3]: 1.2 g | KIDNEY_R [3]: 1.2 g | KIDNEY_TOTAL [3]: 2.4 g | KIDNEY_L [4]: 1.3 g | KIDNEY_R [4]: 1.3 g | KIDNEY_TOTAL [4]: 2.6 g | ALP [2]: 1775.6 IU/L | ALT [2]: 51.6 IU/L | AST [2]: 84.2 IU/L | BUN [2]: 19.2 mg/dL | CRE [2]: 0.2 mg/dL | DBIL [2]: 0.024 mg/dL | GLC [2]: 191.2 mg/dL | IP [2]: 7.5 mg/dL | K [2]: 4.3 meq/L | LDH [2]: 148.2 IU/L | Na [2]: 142 meq/L | PL [2]: 156 mg/dL | RALB [2]: 2.6 g/dL | TBIL [2]: 0.04 mg/dL | TC [2]: 81 mg/dL | TG [2]: 135.2 mg/dL | TP [2]: 5.8 g/dL | gamma-GTP [2]: 1 IU/L | ALP [3]: 1686.4 IU/L | ALT [3]: 42.2 IU/L | AST [3]: 67.6 IU/L | BUN [3]: 18.4 mg/dL | CRE [3]: 0.2 mg/dL | DBIL [3]: 0.012 mg/dL | GLC [3]: 193.4 mg/dL | IP [3]: 7.4 mg/dL | K [3]: 4.4 meq/L | LDH [3]: 70.2 IU/L | Na [3]: 142.6 meq/L | PL [3]: 150.2 mg/dL | RALB [3]: 2.7 g/dL | TBIL [3]: 0.024 mg/dL | TC [3]: 73 mg/dL | TP [3]: 6 g/dL | gamma-GTP [3]: 1.2 IU/L | ALP [4]: 1247.4 IU/L | ALT [4]: 37.8 IU/L | AST [4]: 62 IU/L | BUN [4]: 16.4 mg/dL | CRE [4]: 0.2 mg/dL | DBIL [4]: 0.02 mg/dL | GLC [4]: 173.6 mg/dL | IP [4]: 5.6 mg/dL | K [4]: 4 meq/L | LDH [4]: 53 IU/L | Na [4]: 144 meq/L | PL [4]: 147.6 mg/dL | RALB [4]: 2.8 g/dL | TBIL [4]: 0.03 mg/dL | TC [4]: 74 mg/dL | TG [4]: 154.8 mg/dL | TP [4]: 6.3 g/dL | gamma-GTP [4]: 1.2 IU/L
